Measured values: patent US20230085307A1, “PYRIDAZINONE COMPOUND AND HERBICIDE” (NISSAN CHEMICAL CORPORATION, priority 2019, published 2023)

Legend:
[1] = test system: persian speedwell; assay: Test Example 4: herbicidal effect by soil treatment (Table 19, symbol R); type: in vivo, Persian speedwell (Veronica persica)
Procedure, shortened: (§1)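 Pre-emergence style soil spray: seeds under ~1.5 cm sterilized diluvial soil received a uniform coat of emulsion diluted to the predetermined herbicide amount. Greenhouse 25–30° C; readout at week three on previously defined criteria.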

[2] = test system: Chinese sprangletop; assay: Test Example 3: herbicidal effect by foliage application, Wagner pot (Table 18, symbol D); type: in vivo, chinese sprangletop (Leptochloa chinensis)
Procedure, shortened: (§2)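 Plants were sown in alluvial soil held under 0.1–0.5 cm standing water and grown 14 days in a greenhouse at 25–30 °C. An emulsifiable formulation, water-diluted to the set dose, was then sprayed onto the foliage, and effects were scored three weeks later using previously defined criteria.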

[3] = test system: lambsquarters; assay: Test Example 4: herbicidal effect by soil treatment (Table 19, symbol O); type: in vivo, lambsquarters (Chenopodium album)
Procedure, shortened: as §1

[4] = test system: blackgrass; assay: Test Example 5: herbicidal effect by foliage application, plastic box (Table 20, symbol J); type: in vivo, blackgrass (Alopecurus myosuroides); conditions: foliage application; for effect on blackgrass (J): 3 weeks after application
Procedure, shortened: (§3)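 Plants were sown into sterilized diluvial soil under about 1.5 cm cover and kept in a greenhouse at 25° C. to 30° C. Fourteen days on, foliage received an even spray of the diluted emulsion. Herbicidal or crop effect was judged three weeks afterwards.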

[5] = test system: Japanese bulrush; assay: Test Example 1: herbicidal activity, application before weed generation under submerged conditions (Table 16, symbol B); type: in vivo, Japanese bulrush (Schoenoplectus juncoides)
Procedure, shortened: (§4)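 Emulsion formulation, water-diluted to set dose, was put onto the flooded surface (4 cm depth, alluvial soil) the same day weeds were sown and 2.5-leaf rice transplanted. After 3 weeks at 25-30 °C under glass, each species was rated 0 (≤5% kill) to 5 (≥90% kill).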

[6] = test system: windgrass; assay: Test Example 5: herbicidal effect by foliage application, plastic box (Table 20, symbol L); type: in vivo, windgrass (Apera spica-venti); conditions: foliage application; for effect on windgrass (L): 3 weeks after application
Procedure, shortened: as §3

[7] = test system: lambsquarters; assay: Test Example 5: herbicidal effect by foliage application, plastic box (Table 20, symbol O); type: in vivo, lambsquarters (Chenopodium album); conditions: foliage application; for effect on lambsquarters (O): 3 weeks after application
Procedure, shortened: as §3

[8] = test system: Japanese bulrush; assay: Test Example 2: herbicidal activity, application during weed generation under submerged conditions (Table 17, symbol B); type: in vivo, Japanese bulrush (Schoenoplectus juncoides); conditions: application during weed generation, submerged conditions
Procedure, shortened: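 Herbicide emulsion, diluted with water to the chosen amount, is applied onto 4 cm floodwater over alluvial soil where the weeds were co-sown and raised at 25–30° C. Application timing: 1–2 leaves. Assessment: three weeks afterwards.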

[9] = test system: late watergrass; assay: Test Example 1: herbicidal activity, application before weed generation under submerged conditions (Table 16, symbol A); type: in vivo, late watergrass (Echinochloa oryzicola)
Procedure, shortened: as §4

[10] = test system: barnyard grass; assay: Test Example 5: herbicidal effect by foliage application, plastic box (Table 20, symbol H); type: in vivo, barnyard grass (Echinochloa crus-galli); conditions: foliage application; for effect on barnyard grass (H): 3 weeks after application
Procedure, shortened: as §3

[11] = test system: southern crabgrass; assay: Test Example 4: herbicidal effect by soil treatment (Table 19, symbol F); type: in vivo, southern crabgrass (Digitaria ciliaris)
Procedure, shortened: as §1

[12] = test system: windgrass; assay: Test Example 4: herbicidal effect by soil treatment (Table 19, symbol L); type: in vivo, windgrass (Apera spica-venti)
Procedure, shortened: as §1

[13] = test system: barnyard grass; assay: Test Example 3: herbicidal effect by foliage application, Wagner pot (Table 18, symbol H); type: in vivo, barnyard grass (Echinochloa crus-galli)
Procedure, shortened: as §2

[14] = test system: barnyard grass; assay: Test Example 4: herbicidal effect by soil treatment (Table 19, symbol H); type: in vivo, barnyard grass (Echinochloa crus-galli)
Procedure, shortened: as §1

[15] = test system: chickweed; assay: Test Example 5: herbicidal effect by foliage application, plastic box (Table 20, symbol P); type: in vivo, common chickweed (Stellaria media); conditions: foliage application, 320 g/ha, three weeks after application
Procedure, shortened: as §3

[16] = test system: redroot pigweed; assay: Test Example 5: herbicidal effect by foliage application, plastic box (Table 20, symbol N); type: in vivo, redroot pigweed (Amaranthus retroflexus); conditions: foliage application, 320 g/ha, three weeks after application
Procedure, shortened: as §3

[17] = amount of applied herbicide 320 g/ha
[18] = 320 g/ha, three weeks after application

Row | Structure (SMILES) | R: persian speedwell, herbicidal effect rating ([1]; AAH 320 g/ha) | herbicidal effect on D (Chinese sprangletop), rating 0-5 ([2]; 320 g/ha) | O: lambsquarters, herbicidal effect rating ([3]; AAH 320 g/ha) | effect on blackgrass (J) ([4]; 320 g/ha) | Herbicidal effect on B: Japanese bulrush (grade 0-5) ([5]; 320 g/ha applied herbicide) | effect on windgrass (L) ([6]; 320 g/ha) | effect on lambsquarters (O) ([7]; 320 g/ha) | herbicidal effect rating, B: Japanese bulrush ([8]; AAH 320 g/ha) | Herbicidal effect on A: late watergrass (grade 0-5) ([9]; 320 g/ha applied herbicide) | effect on barnyard grass (H) ([10]; 320 g/ha) | F: southern crabgrass, herbicidal effect rating ([11]; AAH 320 g/ha) | L: windgrass, herbicidal effect rating ([12]; AAH 320 g/ha) | herbicidal effect on H (barnyard grass), rating 0-5 ([13]; 320 g/ha) | H: barnyard grass, herbicidal effect rating ([14]; AAH 320 g/ha) | also measured
1 | C#CC(C)Oc1ccc(-c2sc3ccccc3c2-c2c(O)c(C)nn(C)c2=O)cc1 (racemic) [1-217] | 5 (Herbicidal rate of 90% or more (almost completely withered)) | 5 (Herbicidal rate of 90% or more (almost completely withered)) | 2 (Herbicidal rate of 20% or more and less than 40%) | 4 (Herbicidal rate of 70% or more and less than 90%) | 5 (Herbicidal rate of 90% or more (almost completely withered)) | 5 (Herbicidal rate of 90% or more (almost completely withered)) | 5 (Herbicidal rate of 90% or more (almost completely withered)) | 3 (Herbicidal rate of 40% or more and less than 70%) | 4 (Herbicidal rate of 70% or more and less than 90%) | 5 (Herbicidal rate of 90% or more (almost completely withered)) | 0 (Herbicidal rate of 5% or less (almost no effect)) | 0 (Herbicidal rate of 5% or less (almost no effect)) | 5 (Herbicidal rate of 90% or more (almost completely withered)) | – | –
2 | C#CC(C)Oc1ccc(-c2sc3ccccc3c2-c2c(OCOCCOC)c(C)nn(C)c2=O)cc1 (racemic) [1-218] | – | – | – | – | – | – | – | – | – | – | – | – | – | – | R: persian speedwell, herbicidal effect rating ([1]; AAH 187 g/ha): 5 (Herbicidal rate of 90% or more (almost completely withered)); herbicidal effect on D (Chinese sprangletop), rating 0-5 ([2]; 100 g/ha): 4 (Herbicidal rate of 70% or more and less than 90%); O: lambsquarters, herbicidal effect rating ([3]; AAH 187 g/ha): 3 (Herbicidal rate of 40% or more and less than 70%); effect on blackgrass (J) ([4]; 187 g/ha): 4 (Herbicidal rate of 70% or more and less than 90%); Herbicidal effect on B: Japanese bulrush (grade 0-5) ([5]; 100 g/ha applied herbicide): 3 (Herbicidal rate of 40% or more and less than 70%); effect on windgrass (L) ([6]; 187 g/ha): 0 (Herbicidal rate of 5% or less (almost no effect)); effect on lambsquarters (O) ([7]; 187 g/ha): 4 (Herbicidal rate of 70% or more and less than 90%); herbicidal effect rating, B: Japanese bulrush ([8]; AAH 100 g/ha): 3 (Herbicidal rate of 40% or more and less than 70%); Herbicidal effect on A: late watergrass (grade 0-5) ([9]; 100 g/ha applied herbicide): 4 (Herbicidal rate of 70% or more and less than 90%); H: barnyard grass, herbicidal effect rating ([14]; AAH 187 g/ha): 2 (Herbicidal rate of 20% or more and less than 40%); effect on barnyard grass (H) ([10]; 187 g/ha): 3 (Herbicidal rate of 40% or more and less than 70%); F: southern crabgrass, herbicidal effect rating ([11]; AAH 187 g/ha): 0 (Herbicidal rate of 5% or less (almost no effect)); L: windgrass, herbicidal effect rating ([12]; AAH 187 g/ha): 0 (Herbicidal rate of 5% or less (almost no effect)); herbicidal effect on H (barnyard grass), rating 0-5 ([13]; 100 g/ha): 4 (Herbicidal rate of 70% or more and less than 90%)
3 | CCC(COc1ccc(-c2sc3ccccc3c2-c2c(O)c(C)nn(C)c2=O)cc1)OC (racemic) [1-230] | 5 (Herbicidal rate of 90% or more (almost completely withered)) | 5 (Herbicidal rate of 90% or more (almost completely withered)) | 5 (Herbicidal rate of 90% or more (almost completely withered)) | 5 (Herbicidal rate of 90% or more (almost completely withered)) | 5 (Herbicidal rate of 90% or more (almost completely withered)) | 4 (Herbicidal rate of 70% or more and less than 90%) | 5 (Herbicidal rate of 90% or more (almost completely withered)) | 3 (Herbicidal rate of 40% or more and less than 70%) | 5 (Herbicidal rate of 90% or more (almost completely withered)) | 5 (Herbicidal rate of 90% or more (almost completely withered)) | 0 (Herbicidal rate of 5% or less (almost no effect)) | 0 (Herbicidal rate of 5% or less (almost no effect)) | 5 (Herbicidal rate of 90% or more (almost completely withered)) | 3 (Herbicidal rate of 40% or more and less than 70%) | –
4 | Cc1cc(-c2sc3ccccc3c2-c2c(O)c(C)nn(C)c2=O)ccc1F [1-051] | – | 0 (Herbicidal rate of 5% or less (almost no effect)) | – | – | 0 (Herbicidal rate of 5% or less (almost no effect)) | – | – | 0 (Herbicidal rate of 5% or less (almost no effect)) | 4 (Herbicidal rate of 70% or more and less than 90%) | – | – | – | 4 (Herbicidal rate of 70% or more and less than 90%) | – | herbicidal effect rating, R: persian speedwell [1, 17]: 4 (Herbicidal rate of 70% or more and less than 90%); herbicidal effect rating, O: lambsquarters [3, 17]: 4 (Herbicidal rate of 70% or more and less than 90%); herbicidal effect grade, J: blackgrass [4, 18]: 0 (Herbicidal rate of 5% or less (almost no effect)); herbicidal effect grade, P: chickweed [15]: 5 (Herbicidal rate of 90% or more (almost completely withered)); herbicidal effect grade, L: windgrass [6, 18]: 4 (Herbicidal rate of 70% or more and less than 90%); herbicidal effect grade, O: lambsquarters [7, 18]: 3 (Herbicidal rate of 40% or more and less than 70%); herbicidal effect rating, H: barnyard grass [14, 17]: 3 (Herbicidal rate of 40% or more and less than 70%); herbicidal effect grade, H: barnyard grass [10, 18]: 3 (Herbicidal rate of 40% or more and less than 70%); herbicidal effect rating, F: southern crabgrass [11, 17]: 4 (Herbicidal rate of 70% or more and less than 90%); herbicidal effect grade, N: redroot pigweed [16]: 5 (Herbicidal rate of 90% or more (almost completely withered))
5 | Cc1nn(C)c(=O)c(-c2c(-c3ccc(OCCBr)cc3)sc3ccccc23)c1O [1-204] | 4 (Herbicidal rate of 70% or more and less than 90%) | 2 (Herbicidal rate of 20% or more and less than 40%) | 3 (Herbicidal rate of 40% or more and less than 70%) | 0 (Herbicidal rate of 5% or less (almost no effect)) | 3 (Herbicidal rate of 40% or more and less than 70%) | 0 (Herbicidal rate of 5% or less (almost no effect)) | 4 (Herbicidal rate of 70% or more and less than 90%) | 3 (Herbicidal rate of 40% or more and less than 70%) | 3 (Herbicidal rate of 40% or more and less than 70%) | 3 (Herbicidal rate of 40% or more and less than 70%) | 0 (Herbicidal rate of 5% or less (almost no effect)) | 0 (Herbicidal rate of 5% or less (almost no effect)) | 4 (Herbicidal rate of 70% or more and less than 90%) | 0 (Herbicidal rate of 5% or less (almost no effect)) | –
